# In patent publication US20030176314A1, “Compounds for the treatment of pain” (priority 2001, published 2003):
# What was measured:
# [1] = molecular target: T1, human α1A adrenergic receptor (Homo sapiens, UniProt P35348); assay: Binding at human α1A adrenergic receptor; details: Table 8; read-out: hα1A Ki
# T1 construct: host or cells: LM(tk-) cells, line L-α1C
# T1 sequence (P35348 1-466): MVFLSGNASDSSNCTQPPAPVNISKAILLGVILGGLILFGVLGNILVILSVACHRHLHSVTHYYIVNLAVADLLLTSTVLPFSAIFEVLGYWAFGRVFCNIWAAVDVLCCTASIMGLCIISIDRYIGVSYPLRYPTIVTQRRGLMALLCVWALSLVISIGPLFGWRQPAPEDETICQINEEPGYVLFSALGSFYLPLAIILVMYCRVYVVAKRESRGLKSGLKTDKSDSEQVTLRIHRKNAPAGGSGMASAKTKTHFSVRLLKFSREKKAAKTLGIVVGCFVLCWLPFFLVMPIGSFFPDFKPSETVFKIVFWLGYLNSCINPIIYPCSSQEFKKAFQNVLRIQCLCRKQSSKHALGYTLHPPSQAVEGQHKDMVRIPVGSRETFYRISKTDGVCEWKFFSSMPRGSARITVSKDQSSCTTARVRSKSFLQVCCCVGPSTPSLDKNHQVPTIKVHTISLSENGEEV
# Excerpt: (§1) α1 Human Adrenergic Receptors: To determine the binding of compounds to human α1 receptors, LM(tk−) cell lines stably transfected with the genes encoding the α1a, α1b, and α1d receptors were used. The nomenclature describing the α1 receptors was changed recently, such that the receptor formerly designated α1a is now designated α1d, and the receptor formerly designated α1c is now designated α1a. The cell lines expressing these receptors were deposited with the ATCC before the nomenclature change and reflect the subtype designations formerly assigned to these receptors. Thus, the cell line expressing the receptor described herein as the α1a receptor was deposited with the ATCC on Sep. […] The cell line expressing receptor described herein as the α1d receptor was deposited with the ATCC on Sep. […] The cell line expressing the α1b receptor is designated L-α1B, and was deposited on Sep.
# (§2) The binding affinity (Ki) of these compounds were tested according to the protocols described herein at the following receptors; human α1A, α1B, α1D, α2A, α2B, and α2C adrenergic receptors; human Y1, Y2, Y4, and Y5 receptors; and N-Methyl-D-aspartic acid (NMDA) receptor channels. The binding interactions of these compounds were additionally tested at the norepinephrine (NE) transporter (NE uptake) and serotonin (5-hydroxytryptamine (5HT)) transporter (5HT uptake) according to protocols described herein
# [2] = molecular target: T2, human α1B adrenergic receptor (Homo sapiens, UniProt P35368); assay: Binding at human α1B adrenergic receptor; details: Table 8; read-out: hα1B Ki
# T2 construct: host or cells: LM(tk-) cells, line L-α1B
# T2 sequence (P35368 1-520): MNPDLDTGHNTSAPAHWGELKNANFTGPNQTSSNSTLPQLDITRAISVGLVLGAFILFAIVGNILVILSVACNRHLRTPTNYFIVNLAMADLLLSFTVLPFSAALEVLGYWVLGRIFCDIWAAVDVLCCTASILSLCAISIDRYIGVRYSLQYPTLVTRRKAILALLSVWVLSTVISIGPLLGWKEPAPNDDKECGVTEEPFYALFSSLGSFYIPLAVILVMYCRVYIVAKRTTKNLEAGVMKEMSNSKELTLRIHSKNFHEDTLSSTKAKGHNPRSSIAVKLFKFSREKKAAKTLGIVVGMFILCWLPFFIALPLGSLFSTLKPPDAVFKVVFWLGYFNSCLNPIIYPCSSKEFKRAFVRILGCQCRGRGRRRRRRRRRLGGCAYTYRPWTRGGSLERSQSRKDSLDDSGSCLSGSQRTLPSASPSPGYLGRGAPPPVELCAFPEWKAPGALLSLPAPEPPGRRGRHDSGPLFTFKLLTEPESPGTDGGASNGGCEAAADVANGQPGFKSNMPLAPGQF
# Excerpt: as §1, §2
# [3] = molecular target: T3, human α2B adrenergic receptor (Homo sapiens, UniProt P18089); assay: Binding at human α2B adrenergic receptor; details: Table 8; read-out: hα2B Ki
# T3 construct: host or cells: LM(tk-) cells, line L-NGC-α2B
# T3 sequence (P18089 1-450): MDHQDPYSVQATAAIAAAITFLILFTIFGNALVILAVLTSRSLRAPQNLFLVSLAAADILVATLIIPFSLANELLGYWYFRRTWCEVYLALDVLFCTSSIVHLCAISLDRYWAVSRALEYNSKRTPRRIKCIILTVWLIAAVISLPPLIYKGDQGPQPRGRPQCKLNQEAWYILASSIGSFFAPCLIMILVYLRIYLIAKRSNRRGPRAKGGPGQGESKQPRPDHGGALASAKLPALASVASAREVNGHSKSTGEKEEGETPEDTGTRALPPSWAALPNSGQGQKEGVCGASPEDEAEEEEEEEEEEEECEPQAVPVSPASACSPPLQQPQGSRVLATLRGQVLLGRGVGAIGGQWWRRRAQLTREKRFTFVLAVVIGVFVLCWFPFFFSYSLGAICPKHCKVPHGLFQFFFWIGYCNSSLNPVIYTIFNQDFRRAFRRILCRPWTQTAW
# Excerpt: α2 Human Adrenergic Receptors: To determine the binding of compounds to human α2 receptors, LM(tk−) cell lines stably transfected with the genes encoding the α2A, α2B, and α2C receptors were used. The cell line expressing the α2A receptor is designated L-α2A, and was deposited on Nov. 6, 1992, under ATCC Accession No. CRL 11180. The cell line expressing the α2B receptor is designated L-NGC-α2B, and was deposited on Oct. 25, 1989, under ATCC Accession No. CRL 10275. The cell line expressing the α2C receptor is designated L-α2C, and was deposited on Nov. 6, 1992, under ATCC Accession No. CRL-11181. Cell lysates were prepared as described herin, and suspended in 25 mM glycyiglycine buffer (pH 7.6 at room temperature). Equilibrium competition binding assay were performed using […] (0.5 nM), and nonspecific binding was determined by incubation with 10 μM phentolamine. The bound radioligand was separated by filtration through GF/B filters using a cell harvester.
# as §2
SMILES,Ki [1] [µM],Ki [2] [µM],Ki [3] [µM]
Cc1nc(NC(=N)N)nc2ccc3ccccc3c12 [Compound 1007A],3.27,3.04,–
"Cc1cc(NC(=N)N)nc2ccc(Cl)cc12 [Compound 4005A, N-(6-chloro-4-methyl-2-quinolinyl)guanidine]",–,–,3.75
